Measured values from ChEMBL document CHEMBL1156956, “Triazines incorporating (R)-3-methylmorpholine are potent inhibitors of the mammalian target of rapamycin (mTOR) with selectivity over PI3Kalpha” (Bioorg Med Chem Lett, 2010).
pIC50: −log10 of the molar value.

Tests used:
[1] = target: Serine/threonine-protein kinase mTOR (Rattus norvegicus, UniProt P42346); test: Inhibition of rat brain mTOR assessed as p70S6k-GST protein phosphorylation after 30 mins by ELISA
LNCaP = test: Growth inhibition of human LNCAP cells after 3 days by MTS assay; type: functional, cell-based; conditions: 72 h
[2] = Growth inhibition of human MDA468 cells after 3 days by MTS assay; type: functional, cell-based; conditions: MDA-MB-468, 72 h
[3] = target: Phosphatidylinositol 4,5-bisphosphate 3-kinase catalytic subunit alpha isoform (Homo sapiens, UniProt P42336); test: Inhibition of PI3Kalpha assessed as PIP3 accumulation after 24 mins by HTRF assay
Sequence of Phosphatidylinositol 4,5-bisphosphate 3-kinase catalytic subunit alpha isoform (P42336 whole entry, canonical isoform): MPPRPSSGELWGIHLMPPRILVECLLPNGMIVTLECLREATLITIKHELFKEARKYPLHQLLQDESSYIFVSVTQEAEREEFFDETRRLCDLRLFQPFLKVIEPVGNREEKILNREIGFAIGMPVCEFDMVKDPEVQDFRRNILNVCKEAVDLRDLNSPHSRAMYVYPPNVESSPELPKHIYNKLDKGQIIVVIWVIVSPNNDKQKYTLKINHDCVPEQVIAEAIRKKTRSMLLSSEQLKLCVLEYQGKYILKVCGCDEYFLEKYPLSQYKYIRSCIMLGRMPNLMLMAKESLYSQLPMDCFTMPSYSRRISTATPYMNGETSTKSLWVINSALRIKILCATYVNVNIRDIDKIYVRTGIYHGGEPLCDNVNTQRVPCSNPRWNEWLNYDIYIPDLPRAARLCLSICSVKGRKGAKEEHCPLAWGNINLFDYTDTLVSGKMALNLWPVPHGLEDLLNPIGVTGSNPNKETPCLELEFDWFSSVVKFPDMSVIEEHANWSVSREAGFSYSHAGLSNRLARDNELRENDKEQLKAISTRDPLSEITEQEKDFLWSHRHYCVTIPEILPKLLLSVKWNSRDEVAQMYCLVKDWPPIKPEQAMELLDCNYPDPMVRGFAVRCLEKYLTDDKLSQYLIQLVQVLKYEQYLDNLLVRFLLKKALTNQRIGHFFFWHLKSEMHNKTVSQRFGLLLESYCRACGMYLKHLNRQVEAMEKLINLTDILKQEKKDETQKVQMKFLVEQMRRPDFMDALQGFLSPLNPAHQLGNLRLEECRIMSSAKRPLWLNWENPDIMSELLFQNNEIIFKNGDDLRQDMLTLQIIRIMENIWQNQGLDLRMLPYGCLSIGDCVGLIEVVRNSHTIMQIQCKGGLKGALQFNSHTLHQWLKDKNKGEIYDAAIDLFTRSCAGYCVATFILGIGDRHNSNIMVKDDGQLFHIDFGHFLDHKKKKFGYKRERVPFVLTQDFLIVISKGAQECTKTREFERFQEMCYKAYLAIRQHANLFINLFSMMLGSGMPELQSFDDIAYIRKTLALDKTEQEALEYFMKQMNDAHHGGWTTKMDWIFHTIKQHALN

SMILES	pIC50 [1]	pIC50 (LNCaP)	pIC50 [2]	pIC50 [3]
C[C@@H]1COCCN1c1nc(-c2ccc(NC(=O)Nc3cccnc3)cc2)nc(N2C[C@@H]3C[C@H]2CO3)n1	8.44	6.60	6.52	
C[C@@H]1COCCN1c1nc(-c2ccc(NC(=O)Nc3cccnc3)cc2)nc(N2CCOC[C@H]2C)n1	9.70	7.92	7.00	
C[C@@H]1COCCN1c1nc(-c2ccc(NC(=O)Nc3ccc(N4CCN(C)CC4)nc3)cc2)nc(N2CCOC[C@H]2C)n1	8.77	7.92	7.40	
C[C@@H]1COCCN1c1nc(-c2ccc(NC(=O)Nc3ccc(N4CCN(C)CC4)cc3)cc2)nc(N2CCOC[C@H]2C)n1	8.96	8.52	8.00	
C[C@@H]1COCCN1c1nc(-c2ccc(NC(=O)Nc3ccc(N4CCC(N(C)C)CC4)cc3)cc2)nc(N2CCOC[C@H]2C)n1	8.72		7.10	
C[C@@H]1COCCN1c1nc(-c2ccc(NC(=O)Nc3ccc(OCCN(C)C)cc3)cc2)nc(N2CCOC[C@H]2C)n1	9.15	8.10	7.35	6.50
C[C@@H]1COCCN1c1nc(-c2ccc(NC(=O)Nc3ccc(C(=O)N4CCN(C)CC4)cc3)cc2)nc(N2CCOC[C@H]2C)n1	8.77	> 9.10	> 9.10	
C[C@@H]1COCCN1c1nc(-c2ccc(NC(=O)Nc3ccc(C(=O)N4CCC(N(C)C)CC4)cc3)cc2)nc(N2CCOC[C@H]2C)n1	9.30		8.30	7.26
C[C@@H]1COCCN1c1nc(-c2ccc(NC(=O)Nc3ccc(C(=O)N(C)C)cc3)cc2)nc(N2CCOC[C@H]2C)n1	9.30	> 9.10	> 9.10	
C[C@@H]1COCCN1c1nc(-c2ccc(NC(=O)Nc3ccc(N4CCN(C)CC4)nc3)cc2)nc(C2CCOCC2)n1			7.28	
C[C@@H]1COCCN1c1nc(-c2ccc(NC(=O)Nc3ccc(N4CCN(C)CC4)cc3)cc2)nc(C2CCOCC2)n1	9.15	9.00	8.22	
C[C@@H]1COCCN1c1nc(-c2ccc(NC(=O)Nc3ccc(N4CCNCC4)cc3)cc2)nc(C2CCOCC2)n1	9.10	8.70	8.05	
C[C@@H]1COCCN1c1nc(-c2ccc(NC(=O)Nc3ccc(N4CCC(N(C)C)CC4)cc3)cc2)nc(C2CCOCC2)n1	8.77	7.80	7.42	
C[C@@H]1COCCN1c1nc(-c2ccc(NC(=O)Nc3ccc(C(=O)N4CCN(C)CC4)cc3)cc2)nc(C2CCOCC2)n1	9.00	> 9.10	> 9.10	
CC(C)N1CCN(C(=O)c2ccc(NC(=O)Nc3ccc(-c4nc(C5CCOCC5)nc(N5CCOC[C@H]5C)n4)cc3)cc2)CC1	9.15	> 9.10	> 9.10	
C[C@@H]1COCCN1c1nc(-c2ccc(NC(=O)Nc3cccnc3)cc2)nc(C2CCOCC2)n1	9.22		7.10	
C[C@@H]1COCCN1c1nc(-c2ccc(NC(=O)Nc3ccncc3)cc2)nc(N2CCOC[C@H]2C)n1	9.70		7.40	
C[C@@H]1COCCN1c1nc(-c2ccc(NC(=O)Nc3ccc(CN(C)C)cc3)cc2)nc(N2CCOC[C@H]2C)n1	8.70	7.68	7.30	
